From ChEMBL document CHEMBL1121510, “Resolution, absolute configuration, and antiarrhythmic properties of the enantiomers of disopyramide, 4-(diisopropylamino)-2-(2-pyridyl)-2-phenylbutyramide” (1980) come the findings set out here.

The species entered for assay [1] is Oryctolagus cuniculus. In words: Antiarrhythmic activity expressed as change in effective refractory period (DeltaERP) induced in rabbit ventricle by the Enantiomeric Disopyramide Bitartrates at a concentration of 3.0x10E-6M. In kind it is functional, Heart.
For assay [2], the species on record is Oryctolagus cuniculus. In words: Antiarrhythmic activity expressed as change in effective refractory period (DeltaERP) induced in rabbit ventricle by the Enantiomeric Disopyramide Bitartrates at a concentration of 1.5x10E-5M. The assay is classed as functional, Heart.

In the case of `CC(C)N(CC[C@](C(N)=O)(c1ccccc1)c1ccccn1)C(C)C` [(S)-DISOPYRAMIDE], the “Delta ERP” value in the assay filed under Oryctolagus cuniculus [1] was found to be 21.8 ms; in the assay filed under Oryctolagus cuniculus [2] it was 41.2 ms.
For `CC(C)N(CC[C@@](C(N)=O)(c1ccccc1)c1ccccn1)C(C)C` [DISOPIRAMIDE] the same measures were 25.8 ms and 50.5 ms.
